According to US20110142842A1, “POLYPEPTIDES” (Medinnova AS, priority 2007, published 2011):
Several values for one entry are separate records, joined by “and”; a condition that tells them apart may be missing. Equal values may be shown once. Read-outs that look alike come from different tables or passages of the source.

Columns and labels:
[1] = tested on: autologous responder cells (monocyte-depleted PBMC) from HLA-A*0201-negative donors; assay: Induction of pentamer positive CD8+ T cells by peptide-pulsed HLA-A*0201-transfected moDC (Example 8); type: cell-based, human; conditions: for Day 12 % pent+/CD8+: day 12 of co-culture; for Day 19 % pent+/CD8+: day 19 of co-culture, after restimulation; for Day 12 Donors / Day 19 Donors: donors with positive response / donors tested
Protocol: MoDC transfected with HLA-A*0201 mRNA were harvested 18 hours after transfection and resuspended in 1-2 ml of serum-free DC-medium containing 50 μg/ml peptide, such as MART-1 or peptide #19. The cells were incubated at 37° C., 5% CO2 for 4 hours, then washed once in serum-free RPMI.
Stimulator and responder cells were seeded at a stimulator to responder (S:R) ratio of 1:10, with 3.0×10^6 responders per well in serum-free DC medium containing 10 ng/ml IL-7 (PeproTech EC Ltd.), 50 pg/ml IL-12 (PeproTech EC Ltd.), and PPD at 1 μg/ml.
On day 12 the responder cells were harvested and analyzed for the presence of pentamer positive cells. The cells were either sorted or restimulated.
Restimulation was done with autologous EBV-LCL transfected with HLA-A*0201 mRNA 12-24 hours prior to stimulation, harvested and resuspended in 1-2 ml of serum-free X-Vivo 20 (Cambrex) containing the same peptide as added on day 0 at 20 μg/ml, and incubated for 4 hours at 37° C., 5% CO2. Following incubation, the EBV-LCL were washed once in serum-free RPMI.
From day 12 of co-culture with stimulator cells, the responders were harvested, counted and analyzed for the presence of pentamer positive cells weekly. The responder cells were either restimulated, as described above, or the pentamer positive cells were sorted and expanded as described below.
Monocyte-derived dendritic cells (moDC) from HLA-A*0201-negative donors were transfected with HLA-A*0201 mRNA after maturation. 18-24 hours post-transfection the cells were pulsed with the peptides indicated in Table 2 for four hours, before co-culturing them with autologous responder cells (monocyte-depleted PBMC). On day 12 and day 19 and in some cases at day 26 of co-culture, the cells were harvested, stained with relevant peptide-MHC-pentamer and analyzed by flow cytometry. The percentage of pentamer positive cells was calculated by dividing the number of pentamer positive cells by the number of CD8+ cells. On day 12 and day 19, the cells were restimulated with autologous EBV-cells that were transfected with HLA-A*0201 mRNA and loaded for four hours with the relevant peptides indicated in Table 2.

[2] = tested on: CD8+ T cells from HLA-A*0201 negative donors; assay: Induction of allo-restricted pentamer+ T cells by peptide-pulsed A2-moDC (Example 9); type: cell-based, human; conditions: three donors respectively, 19 days of culture
Protocol: Mature moDCs were harvested 18 hours after transfection with HLA-A*0201 mRNA, pulsed with 50 μg/ml MART-1 peptide or CD339-17 peptide for 4 hours, washed and co-cultured with thawed, non-adherent cells (see above) at a ratio of 1:10 in CellGro DC medium in the presence of 10 ng/ml IL-7 (PeproTech EC Ltd.) and 50 pg/ml IL-12 (PeproTech EC Ltd.), with the addition of 10 ng/ml IL-7 on day 7. Cells were harvested day 12 and analyzed for the presence of pentamer^+ cells. The co-cultures stimulated with the CD339-17 peptide were re-stimulated on day 12 with HLA-A*0201 transfected autologous EBV-LCL for an additional 7 days before harvest.
(§1) Co-cultured cells were harvested and stained with A2/MART-1 pentamer or A2/CD33 pentamer, fluorotag and anti-CD8 according to the manufacturers' instructions. Sorting was performed by flow cytometry (FACS Aria Cell sorter, BD Biosciences, San Jose, Calif.) or by magnetic beads to a purity of >98%. Pentamer^+ cells labelled with fluorotag conjugated to PE were isolated using MACS Anti-PE MicroBeads (Miltenyi Biotec, Bergisch Gladbach, Germany) followed by separation over two subsequent MACS MS Columns (Miltenyi Biotec).

HLA-A*0201 = HLA-A*0201 (Homo sapiens, UniProt P04439, D140Y/D185E/D98H/E176V/E277Q/G131W/G231S/I119V/I121R/I166T/I218V/L300P/L318F/N151K/N90K/P208A/P217A/Q86G/Q94H/R138H/R169H/T345S); assay: REVEAL MHC molecule binding assay (ProImmune)
[3] = tested on: myelo-monocytic leukemia cell line THP-1; assay: IFN-γ production and CD107a/b mobilization, peptide-loaded targets; type: cell-based, human; conditions: THP-1 loaded with peptide and washed, p=0.016, n=4
[4] = tested on: CD8+ T cells from HLA-A*0201 negative donors; assay: Induction of A2/CD20 pentamer+ T cells by HLA-A*0201-transfected peptide-pulsed moDC (Example 10); type: cell-based, human
Protocol: Mature moDCs were harvested 18 hours after transfection with HLA-A*0201 mRNA (HLA-A*0201 negative donors), or left untransfected (HLA-A*0201 positive donors), pulsed with 50 μg/ml peptide for 4 hours, irradiated (25Gy), washed and co-cultured with thawed, autologous, non-adherent cells at a ratio of 1:10 in CeliGro DC medium in the presence of 10 ng/ml IL-7 (PeproTech EC Ltd.), 50 pg/ml IL-12 (PeproTech EC Ltd.) and 1 μg/ml purified protein derivative-1 (gift from Prof. L. Sollid's lab, Rikshospitalet, Oslo) with the addition of 10 ng/ml IL-7 on day 7. Cells were analyzed for the presence of pentamer^+ cells, harvested and re-stimulated on day 12 with HLA-A*0201-transfected, peptide-pulsed autologous EBV-LCL. Cells were co-cultured in X-vivo 20 (Lonza, Verviers, Belgium) with 5% pooled human serum, 10 U/ml IL-2 (R&D systems, Minneapolis, Minn.) was added on day 14 and the cells harvested for cell sorting day 19.
as §1, with “Harvested” for “Co-cultured”, “were” for “were harvested and”, “A2/CD20” for “A2/MART-1 pentamer or A2/CD33”, “anti-PE” for “Anti-PE”

[5] = day 26 per footnote c, printed in Day 19 column

Substance	Day 12 % pent+/CD8+ [1]	Day 19 % pent+/CD8+ [1]	Day 12 Donors [1]	Day 19 Donors [1]	other results
ALAVISFLL (homo sapiens) [Peptide 114, from CD7]	0%	0%	0/2	0/2	–
ALPAALAVI (homo sapiens) [Peptide 127, from CD7]	0%	0.04%	0/2	1/2	–
ALYDKTKRI (homo sapiens) [Peptide 115]	0%	0%	0/2	0/2	–
CD339-17: peptide derived from the CD33 antigen, amino acid sequence 9-17, HLA-A*0201-binding candidate (LLWAGALAM; UniProt P20138 9-17, looked up, fragment)	–	–	–	–	frequencies of pentamer+ cells [2]: 0.13% and 0.32% and 0.55%
FLDCQIHRV (homo sapiens) [Peptide 7, from CD127]	0%	0%	0/2	0/2	–
FLLLTISLL (homo sapiens) [Peptide 88, from CD52]	0%	0.08% and 0%	0/2 and 0/3	2/3 and 0/2	–
FLYGVILTV (homo sapiens) [Peptide 131]	–	–	–	–	% Pass/fail control (HLA-A*0201): 257.0%
FVANAIIHL (homo sapiens) [Peptide 111, from CD52]	0%	0%	0/2	0/2	–
ILFAFVSSV (homo sapiens) [Peptide 25, from FLT3]	0%	0%	1/2	0/2	–
KIVEWDWKI (homo sapiens) [Peptide 109, from CD48]	0.03%	0.05%	1/2	1/2	–
KLGGDLLRA (homo sapiens) [Peptide 129, from CD18]	0%	0%	0/2	0/2	–
KLMSPKLYV (homo sapiens) [Peptide 55, from CD19]	0.03%	0.05%	1/2	1/2	–
LIQPFMFRL (homo sapiens) [Peptide 84, from MPO]	0%	0%	0/5	0/4	–
LLFLTPMEV (homo sapiens) [Peptide 108, from CD19]	0.03%	0.09%	1/2	1/2	–
LLLPLLLAL (homo sapiens) [Peptide 28, from CD7]	0.01%	0.19%	1/2	1/2	–
LLLTISLLV (homo sapiens) [Peptide 81, from CD52]	0%	0.03%	0/2	1/2	–
LLQRPGLQL (homo sapiens) [Peptide 126, from CD64]	0.01%	0.06%	1/2	1/2	–
LLWAGALAM (homo sapiens) [Peptide 86, from CD33]	0.14%	0.35%	2/4	4/6	–
LMGTLIAKV (homo sapiens) [Peptide 83, from HA-1]	0%	0%	0/2	0/2	–
LVAPRFLEV (homo sapiens) [Peptide 85, from CD50]	0.13%	0.30%	1/4	2/5	–
RLYQFLLDL (homo sapiens) [Peptide 66, from PU.1]	0%	0.03%	0/2	1/2	–
SLFLGILSV (homo sapiens) [Peptide 19, from CD20]	–	–	–	–	peptide concentration at which increase in frequency of activated T cells reached statistical significance [3]: 100 nM; donors with positive cells ([4]; day 12): 5 of 6; median frequency of pentamer positive cells of CD8+ T cells ([4]; day 12): 0.19%; range of frequency of pentamer positive cells of CD8+ T cells ([4]; day 12): 0-0.31%; donors with pentamer positive cells ([4]; day 19): 6/6; median frequency of pentamer positive cells of CD8+ T cells ([4]; day 19, after re-stimulation): 0.57%; range of frequency of pentamer positive cells of CD8+ T cells ([4]; day 19, after re-stimulation): 0.12-2.79%
SLWRRPFNV (homo sapiens) [Peptide 22, from MPO]	0%	0.09%	0/2	1/2	–
SMFHVTLKI (homo sapiens) [Peptide 128, from CLL-1]	–	–	–	–	% pent+/CD8+ (results d26) [1, 5]: 0.08%; Donors (results d26) [1, 5]: 1/3
SMLDDLRNV (homo sapiens) [Peptide 24, from CD18]	0%	0.05%	0/2	1/2	–
SVDPRIANV [139] (SLDPRIANV; homo sapiens) [Peptide 139, modified peptide, MPO]	–	–	–	–	% Pass/fail control (HLA-A*0201; level of binding relative to pass/fail control binder designated 100%): 231.5%
VLWHWLLRT (homo sapiens) [Peptide 105, from CD19]	0%	0.19%	0/2	4/6	–
YLGYTVTWL (homo sapiens) [Peptide 93, from CD11a]	0.02%	0.06%	1/2	2/2	–
YLHVALDLL (homo sapiens) [Peptide 107, from MPO]	0%	0.01%	0/2	1/2	–
